{"source": "patent US5306824A", "about": "“Biotinylated isocoumarins” (Georgia Tech Research Corporation, priority 1992, dated 1994)", "key": {"PPE": {"target": "PPE (Sus scrofa, UniProt P00772)", "sequence (P00772 27-266)": "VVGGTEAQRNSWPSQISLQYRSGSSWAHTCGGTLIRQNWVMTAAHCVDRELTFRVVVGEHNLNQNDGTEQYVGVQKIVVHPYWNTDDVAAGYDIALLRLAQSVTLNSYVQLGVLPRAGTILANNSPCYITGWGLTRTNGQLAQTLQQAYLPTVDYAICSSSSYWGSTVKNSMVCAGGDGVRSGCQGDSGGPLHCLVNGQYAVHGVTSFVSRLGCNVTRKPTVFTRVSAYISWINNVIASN", "experiment": "Elution of inhibited PPE from avidin-agarose column with NH2OH", "type": "biochemical, porcine", "method": "Elution of inhibited PPE by 7-[6-(6-biotinylaminocaproyl)aminocaproyl]amino-4-chloro-3-methoxyisocoumarin from avidin-agarose column with NH2 OH.\nPPE (1 mg, […]) was inhibited by biotinylated isocoumarin (0.5 mmole) in 0.1M Hepes, 0.5M NaCl, pH 7.5 buffer at 25° C. for 10 min, 7% of residual enzyme activity was found. Excess of inhibitors was removed by Sephadex G-25 column and the inhibited PPE was eluted with 0.1M acetate, 0.5M NaCl, pH 5.0 buffer and had 16% of enzyme activity. This inhibited enzyme solution was then applied on the avidin-agarose column and 34% of protein went through (measured by optical density at 280 nm). The column was washed with pH 5.0 acetate buffer, then eluted with 0.1M Hepes, 0.5M NaCl, and 0.5M NH2 OH, pH 7.5 buffer and 37% of protein was eluted out (measured by OD280) from the column. In these protein fractions, 40% of PPE activity was detected."}, "cathepsin G (cat G)": {"target": "T1, cathepsin G (cat G) (Homo sapiens, UniProt P08311)", "T1 sequence (P08311 21-255)": "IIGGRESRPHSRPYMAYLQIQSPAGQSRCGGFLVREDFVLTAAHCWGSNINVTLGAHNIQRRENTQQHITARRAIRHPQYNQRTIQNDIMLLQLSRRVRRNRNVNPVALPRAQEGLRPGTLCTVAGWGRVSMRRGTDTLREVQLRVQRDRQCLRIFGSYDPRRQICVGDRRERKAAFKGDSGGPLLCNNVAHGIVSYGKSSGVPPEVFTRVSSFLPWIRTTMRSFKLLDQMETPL", "experiment": "Inactivation of cathepsin G by biotin-isocoumarins (incubation method)", "type": "biochemical", "settings": "inhibitor 75-400 μM, pH 7.5, 25° C.", "method": "(§1) Inactivation rates of serine proteases by substituted isocoumarins were measured by the incubation method. An aliquot of inhibitor (25 or 50 μl) in Me2 SO was added to a buffered enzyme solution (0.01-2.3 μM) to initiate the inactivation. Aliquots (50-100 μl) were withdrawn at various intervals and the residual enzymatic activity was measured. Me2 SO concentration in the reaction mixture was 8-12% (v/v). 0.1M Hepes, 0.5M NaCl, pH 7.5 buffer was utilized for the assays of chymotrypsin, cathepsin G (cat G), porcine pancreatic elastase (PPE), human leukocyte elastase (HLE) and rat granule serine proteases. 0.1M Hepes, 0.01M CaCl2, pH 7.5 buffer was utilized for the assays of trypsin and human recombinant (HR) granzyme A. The inhibitor concentrations are shown in the Tables I and II. Peptide nitroanilides with appropriate sequence were used as substrates for various serine proteases. All peptide 4-nitroanilide hydrolysis was measured at 410 nm (ε410 =8800M^-1 cm^-1; Erlanger et al., Arch. Biochem. Biophys. 95, pp 271-278 (1961), incorporated herein by reference). Peptide thioester hydrolysis rates were measured with assay mixtures containing 4,4'-dithiodipyridine (ε324 =19800M^-1 cm^-1; Grasetti & Murray, Arch. Biochem. Biophys. 119, pp. 41-49 (1967), incorporated herein by reference). First order inactivation rate constant (kobs) were obtained from plots of ln (vt /vo) vs time, and the correlation coefficients were greater than 0.98.\n(§2) ^a Inhibition was measured in 0.1 M Hepes, 0.5 M NaCl (or 0.01 M\n(§3) CaCl2), pH 7.5 buffer, 5-10% Me2 SO and at 25° C.\nSucVal-Pro-NA (0.48 mM) was used as the substrate for chymotrypsin and ca\n(§4) G. MeOSuc-Ala-Ala-Pro-Val-NA (0.24-0.47 mM) and SucAla-Ala-Ala-NA\n^c Inhibitor concentrations were 75-400 μM.\n(§5) ^h No inhibition after 10 min of incubation of inhibitor and enzyme.\n(§6) ^i Percentage of inhibition after 10 min of incubation of inhibitor"}, "[1]": {"target": "T2, human leukocyte elastase (HLE) (Homo sapiens, UniProt P08246)", "T2 sequence (P08246 30-267)": "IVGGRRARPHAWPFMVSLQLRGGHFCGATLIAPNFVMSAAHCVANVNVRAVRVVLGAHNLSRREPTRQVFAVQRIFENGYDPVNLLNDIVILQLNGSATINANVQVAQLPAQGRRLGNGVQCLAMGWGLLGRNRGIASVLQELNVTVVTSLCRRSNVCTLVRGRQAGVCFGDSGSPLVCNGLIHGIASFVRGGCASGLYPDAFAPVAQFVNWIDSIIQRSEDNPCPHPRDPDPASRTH", "experiment": "Inactivation of human leukocyte elastase by biotin-isocoumarins (incubation method)", "type": "biochemical", "settings": "inhibitor 1.6-210 μM; pH 7.5, 25° C.; read-out: kobs/[I] HLE", "method": "as §1, §2, §3, §4\n(0.29-0.48 mM) were used as the substrate for HLE and PPE respectively.\n^d Inhibitor concentrations were 1.6-210 μM."}, "[2]": {"target": "T3, human recombinant (HR) granzyme A (Homo sapiens, UniProt P12544)", "T3 sequence (P12544 29-262)": "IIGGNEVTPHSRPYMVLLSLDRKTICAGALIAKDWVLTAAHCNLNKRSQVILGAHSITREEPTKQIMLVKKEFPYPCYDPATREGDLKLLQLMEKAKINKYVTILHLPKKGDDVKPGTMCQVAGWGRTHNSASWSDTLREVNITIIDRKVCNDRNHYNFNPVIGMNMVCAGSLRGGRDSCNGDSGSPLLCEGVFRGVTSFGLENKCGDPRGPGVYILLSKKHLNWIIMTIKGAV", "experiment": "Inactivation of human recombinant granzyme A by biotin-isocoumarins (incubation method)", "type": "biochemical", "settings": "inhibitor 160-210 μM, pH 7.5, 25° C.", "method": "as §1, §2, §3\nZGlu-Phe-Arg-NA (0.032 mM) was a substrate for trypsin. ZArg-SBzl (0.120\nmM) was a substrate for human recombinant (HR) granzyme A.\n^g Inhibitor concentrations were 160-210 μM.\nas §5, §6"}}, "data": [{"smiles": "COc1oc(=O)c2cc(NC(=O)CCCCCNC(=O)CCCCCNC(=O)CCCCC3SCC4NC(=O)NC43)ccc2c1Cl", "note": "(stereo not shown) [Compound 6, 7-[6-(6-biotinylaminocaproyl)aminocaproyl]-amino-4-chloro-3-methoxyisocoumarin]", "values": [{"measurement": "enzyme activity of inhibited PPE after Sephadex G-25 removal of excess inhibitor", "setting": "PPE; eluted with 0.1M acetate, 0.5M NaCl, pH 5.0", "result": 16, "unit": "%"}, {"measurement": "PPE activity detected in eluted protein fractions", "setting": "PPE; fractions eluted with 0.5M NH2OH", "result": 40, "unit": "%"}, {"measurement": "residual enzyme activity of PPE after inhibition", "setting": "PPE; pH 7.5 buffer, 25° C., 10 min", "result": 7, "unit": "%"}, {"measurement": "kinact/KI", "setting": "cathepsin G (cat G); NI = no inhibition after 10 min of incubation, read-out: kobs/[I] Cat. G", "result": 2.2, "unit": "M⁻¹ s⁻¹"}, {"measurement": "kinact/KI", "setting": "[1]", "result": 37500, "unit": "M⁻¹ s⁻¹"}, {"measurement": "Percentage of inhibition of HR Granzyme A after 10 min of incubation of inhibitor and enzyme", "setting": "[2]", "result": 5, "unit": "%"}]}, {"smiles": "O=C(CCCCCNC(=O)CCCCC1SCC2NC(=O)NC21)NCCCCCC(=O)Nc1ccc2c(Cl)c(OCCc3ccccc3)oc(=O)c2c1", "note": "(stereo not shown) [Compound 7, 7-[6-(6-biotinylaminocaproyl)aminocaproyl]-amino-4-chloro-3-(2-phenylethoxy)-isocoumarin]", "values": [{"measurement": "kinact/KI", "setting": "[1]", "result": 230, "unit": "M⁻¹ s⁻¹"}]}, {"smiles": "O=C(CCCCC1SCC2NC(=O)NC21)NCCNC(=O)CNC(=O)Nc1ccc2c(Cl)c(OCCc3ccccc3)oc(=O)c2c1", "note": "(stereo not shown) [Compound 8, 7-biotin-NH(CH2)2 NH--COCH2 NHCONH-4-chloro-3-(2-phenylethoxy)isocoumarin]", "values": [{"measurement": "Percentage of inhibition of Cat. G after 10 min of incubation of inhibitor and enzyme", "setting": "cathepsin G (cat G); 10 min", "result": 19, "unit": "%"}, {"measurement": "kinact/KI", "setting": "[1]", "result": 6.6, "unit": "M⁻¹ s⁻¹"}, {"measurement": "Percentage of inhibition of HR Granzyme A after 10 min of incubation of inhibitor and enzyme", "setting": "[2]", "result": 18, "unit": "%"}]}]}
